The values that follow come from patent publication US20080096807A1, “Cyclic vasoactive intestinal peptide receptor-2 agonists” (priority 2006, published 2008).

Read-outs that look alike come from different tables or passages of the source. Bridge positions count the residues as written; N and C are the ends. Square brackets hold non-standard residues; d marks the D form. Peptide text beside a SMILES is read from it. ξ: configuration not given here. Thr(3ξ) = CC(O)[C@H](N)C(=O)O; Nle = CCCC[C@H](N)C(=O)O

Usually EC50 stands for the concentration at which the effect is half-maximal.

The target of data set [1] is T1, human neutrophil elastase (Homo sapiens, UniProt P08246).
T1 sequence (P08246 30-247 limits assumed): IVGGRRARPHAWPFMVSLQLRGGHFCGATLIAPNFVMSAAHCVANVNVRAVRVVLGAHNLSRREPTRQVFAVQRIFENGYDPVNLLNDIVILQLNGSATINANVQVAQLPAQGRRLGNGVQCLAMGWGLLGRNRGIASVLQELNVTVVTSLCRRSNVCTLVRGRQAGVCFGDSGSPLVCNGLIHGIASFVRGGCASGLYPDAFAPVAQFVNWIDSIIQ
Nature of the data set: Peptide stability to neutrophil elastase (RP HPLC ESI MS). As to conditions: halftime with human neutrophil elastase 1 to 2 μg/mL in PBS, ambient temperature, normalized to halftime of the reference standard.
Description: The proteolytic stabilities of peptide analogs were established with reversed phase high pressure liquid chromatography (RP HPLC) electrospray ionization mass spectrometry (ESI MS). Peptide analogs were incubated with human neutrophile elastase and the quantity of undigested analogs was determined by ESI MS at appropriate time points. Multiple peptide analogs could be included in one experiment as long as they could be differentiated by HPLC retention time and/or by molecular weight. Ac-His Ac-[sequence]Nle-[sequence]NH2 was used in all experiments as a control and as a reference standard. The simultaneous use of multiple peptide analogs together with a reference standard allowed for compensation for variations in the proteolytic fidelity of the enzyme over the multiple experiments. Integrated ion currents obtained for the individual undigested peptide were used for quantitation. For calculation of halftime first-order kinetic behavior was assumed and all calculations were normalized to the halftime of the reference standard.
Peptide stock solutions were prepared in water to a concentration of 2.5 mg/mL. Unless in use, all stock solutions were kept at −20° C. […] Concentrations of the peptide analogs were adjusted accordingly. In order to do the proteolytic digestion, peptides were dissolved in phosphate buffered saline (PBS) to a concentration of 0.1 mg/mL. As many as six different peptide analogs were mixed into one 50 μL reaction volume. The reference standard was added to all experiments as a reference and internal standard. Elastase (Human Neutrophil, Calbiochem, Cat # 324681) was added from an elastase stock solution to a concentration of 1 to 2 μg/mL. Different amounts of the enzyme were chosen to compensate for the differences in the proteolytic stabilities of the peptide analogs. Previously, a stock solution of elastase was prepared in water at a concentration of 1 mg/mL. Small aliquots of the enzyme stock solution were kept at −20° C. to better maintain the enzyme activity by limiting the number of thaw and freeze cycles.
The digestion was done at ambient temperature in an autosampler tube within the autosampler of the HPLC system (Agilent 1100 Series). For a time course, 5 μL aliquots were injected in 70 minute intervals onto the reversed phase HPLC column (Phenomenex, Luna C18, 3μ, 100 ↑, 150×2.00 mm). For the starting time point an aliquot was injected just prior to the addition of the proteolytic enzyme. A total of eight time points could be recorded from one experiment, including the starting point. Peptides were separated on the reversed phase column with a 50 minute gradient of 5% to 30% organic phase. The aqueous phase was 0.05% (v/v) of trifluoroacetic acid in water and the organic one was 0.045% (v/v) of trifluoroacetic acid in acetonitrile. Absorbances were recorded at 214 and 280 nm respectively. All of the column effluent was introduced into the turbo V source of the electrospray ionization mass spectrometer (ABI 4000 QTrap LC/MS/MS System). Mass spectra were acquired in Q3MS mode in a mass range to include all triply charged ions of the non degraded peptide analogs. Care was taken to assure that peptide analogs could clearly be differentiated either by the chromatographic retention time or by the difference in molecular weight. Relative quantities of the respective undigested peptide analog were calculated from the integrated total ion current. A window of 2.5 Da was chosen and the manufacturer's software was used to integrate the individual ion currents. The overall halftime of an individual peptide analog was calculated by assuming first-order kinetic behavior and was normalized with respect to the halftime of the reference standard.

For the next data set, the target named is T2, VPAC2 receptor (Homo sapiens, UniProt P41587).
T2 construct: The human T-lymphoid cell line Sup-Ti, which expresses the VPAC2 receptor; host or cells: Sup-T1 (Sup-Ti [sic]) human T-lymphoid cell line
T2 sequence (P41587 24-438): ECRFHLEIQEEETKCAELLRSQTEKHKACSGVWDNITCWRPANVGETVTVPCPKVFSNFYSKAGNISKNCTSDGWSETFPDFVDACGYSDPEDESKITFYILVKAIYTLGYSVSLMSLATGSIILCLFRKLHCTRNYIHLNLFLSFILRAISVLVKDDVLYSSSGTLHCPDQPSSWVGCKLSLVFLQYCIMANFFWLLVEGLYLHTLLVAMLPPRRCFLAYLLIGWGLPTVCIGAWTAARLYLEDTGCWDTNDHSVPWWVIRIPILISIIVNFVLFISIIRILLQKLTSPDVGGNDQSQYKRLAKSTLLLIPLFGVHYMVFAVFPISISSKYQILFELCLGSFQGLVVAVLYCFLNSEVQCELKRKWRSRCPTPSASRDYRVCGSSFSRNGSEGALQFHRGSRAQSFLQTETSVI
In words: Sup-T1 cAMP agonist assay. It is filed as cell-based. On the procedure: The human T-lymphoid cell line Sup-Ti, which expresses the VPAC2 receptor, was obtained from the American Type Culture Collection (ATCC, CRL-1942) and maintained in growth medium at densities between 0.2 and 2×10^6 cells/ml in a 37° C. CO2 incubator. The growth medium was RPMI 1640 (Invitrogen) supplemented with 25 mM HEPES buffer and 10% fetal bovine serum (Gemini Bioproducts).
To evaluate VPAC2 agonist compound activity, cells in log-phase growth were washed once with growth medium at room temperature and plated into 96-well plates at a density of 4×10^4 cells per well in 150 uL of growth medium. Fifty uL of the compounds to be tested, prepared at appropriate concentrations in growth medium, were then added to designated wells. After 5 min at room temperature, the cells were lysed by adding 25 uL of lysis reagent 1A (cAMP Biotrak EIA system, Amersham Biosciences, RPN225) to each well. The 96-well plates were kept at room temperature for 10 min with shaking and then stored at 4° C. until analysis for cAMP (within 2 hr).
Cyclic AMP levels were determined in 100 uL of each lysate using the cAMP Biotrak Enzymeimmunoassay (EIA) kit according to the manufacture's instructions (Amersham Biosciences, RPN225). The activity of each VPAC2 agonist compound (EC50 value) was estimated by fitting the 7-concentration dose response data to a sigmoidal dose-response equation provided by the GraphPad Prism program (GraphPad Software, Inc.).

Setting [2] is: human T-lymphoid cell line Sup-T1 expressing VPAC2 receptor, cAMP EIA, 5 min at room temperature, read-out: Sup-T1 cAMP EC50.

Turning to `CCCC[C@H](NC(=O)[C@H](CCC(N)=O)NC(=O)[C@H](CCCCN)NC(=O)[C@H](CCCNC(=N)N)NC(=O)[C@H](CC(C)C)NC(=O)[C@H](CCCCN)NC(=O)[C@@H](NC(=O)[C@H](Cc1ccc(O)cc1)NC(=O)[C@H](CC(N)=O)NC(=O)[C@H](CCC(=O)O)NC(=O)[C@@H](NC(=O)[C@H](Cc1ccccc1)NC(=O)[C@H](CC(=O)O)NC(=O)[C@H](C)NC(=O)[C@H](CC(=O)O)NC(=O)[C@H](CO)NC(=O)[C@H](Cc1c[nH]cn1)NC(C)=O)C(C)O)C(C)O)C(=O)N[C@@H](C)C(=O)N[C@@H](C)C(=O)N[C@@H](CCCCN)C(=O)N[C@H]1CCCCNC(=O)C[C@@H](C(=O)N[C@@H](CC(C)C)C(=O)N[C@@H](CCCCN)C(=O)N[C@@H](CCCCN)C(=O)NCC(=O)NCC(=O)N[C@H](C(N)=O)C(C)O)NC(=O)[C@H](CC(N)=O)NC(=O)[C@H](CC(C)C)NC(=O)[C@H](Cc2ccc(O)cc2)NC1=O` (stereo partly shown) [Example 3] (Ac-HSDADF[Thr(3ξ)]ENY[Thr(3ξ)]KLRKQ[Nle]AAKKYLNDLKKGG[Thr(3ξ)]-NH2; lactam 21-25), the Relative elastase stability in data set [1] was found to be 4.5. In addition, the EC50 on VPAC2 receptor (setting [2]) was determined as 98 nM.

The molecule `CCCC[C@H](NC(=O)[C@H](CCC(N)=O)NC(=O)[C@H](CCCCN)NC(=O)[C@H](CCCNC(=N)N)NC(=O)[C@H](CC(C)C)NC(=O)[C@H](CCCCN)NC(=O)[C@@H](NC(=O)[C@H](Cc1ccc(O)cc1)NC(=O)[C@H](CC(N)=O)NC(=O)[C@H](CCC(=O)O)NC(=O)[C@@H](NC(=O)[C@H](Cc1ccccc1)NC(=O)[C@H](CCC(N)=O)NC(=O)[C@H](C)NC(=O)[C@H](CC(=O)O)NC(=O)[C@H](CO)NC(=O)[C@H](Cc1c[nH]cn1)NC(C)=O)C(C)O)C(C)O)C(=O)N[C@@H](C)C(=O)N[C@@H](C)C(=O)N[C@@H](CCCCN)C(=O)N[C@H]1CCCCNC(=O)C[C@@H](C(=O)N[C@@H](CC(C)C)C(=O)N[C@@H](CCCCN)C(=O)N[C@@H](CCCCN)C(=O)NCC(=O)NCC(=O)N[C@H](C(N)=O)C(C)O)NC(=O)[C@H](CC(N)=O)NC(=O)[C@H](CC(C)C)NC(=O)[C@H](Cc2ccc(O)cc2)NC1=O` (stereo partly shown) [Example 4] (Ac-HSDAQF[Thr(3ξ)]ENY[Thr(3ξ)]KLRKQ[Nle]AAKKYLNDLKKGG[Thr(3ξ)]-NH2; lactam 21-25) showed a Relative elastase stability in data set [1] of 3.9. For the same molecule, the EC50 at VPAC2 receptor (setting [2]) stood at 85 nM.

In turn, `CCCC[C@H](NC(=O)[C@H](CCC(N)=O)NC(=O)[C@H](CCCCN)NC(=O)[C@H](CCCNC(=N)N)NC(=O)[C@H](CC(C)C)NC(=O)[C@H](CCCCN)NC(=O)[C@@H](NC(=O)[C@H](Cc1ccc(O)cc1)NC(=O)[C@H](CC(N)=O)NC(=O)[C@H](CCC(=O)O)NC(=O)[C@@H](NC(=O)[C@H](Cc1ccccc1)NC(=O)[C@@H]1CCCN1C(=O)[C@H](C)NC(=O)[C@H](CC(=O)O)NC(=O)[C@H](CO)NC(=O)[C@H](Cc1c[nH]cn1)NC(C)=O)C(C)O)C(C)O)C(=O)N[C@@H](C)C(=O)N[C@@H](C)C(=O)N[C@@H](CCCCN)C(=O)N[C@H]1CCCCNC(=O)C[C@@H](C(=O)N[C@@H](CC(C)C)C(=O)N[C@@H](CCCCN)C(=O)N[C@@H](CCCCN)C(=O)NCC(=O)NCC(=O)N[C@H](C(N)=O)C(C)O)NC(=O)[C@H](CC(N)=O)NC(=O)[C@H](CC(C)C)NC(=O)[C@H](Cc2ccc(O)cc2)NC1=O` (stereo partly shown) [Example 5] (Ac-HSDAPF[Thr(3ξ)]ENY[Thr(3ξ)]KLRKQ[Nle]AAKKYLNDLKKGG[Thr(3ξ)]-NH2; lactam 21-25) showed a Relative elastase stability in data set [1] of 4.9. In addition, the EC50 on VPAC2 receptor (setting [2]) was 1210 nM.

In data set [1], `CCCC[C@H](NC(=O)[C@H](CCCNC(=N)N)NC(=O)[C@H](CCCCN)NC(=O)[C@H](CCCNC(=N)N)NC(=O)[C@H](CC(C)C)NC(=O)[C@H](CCCCN)NC(=O)[C@@H](NC(=O)[C@H](Cc1ccc(O)cc1)NC(=O)[C@H](CC(N)=O)NC(=O)[C@H](CCC(=O)O)NC(=O)[C@@H](NC(=O)[C@H](Cc1ccccc1)NC(=O)[C@H](CO)NC(=O)[C@H](C)NC(=O)[C@H](CC(=O)O)NC(=O)[C@H](CO)NC(=O)[C@H](Cc1c[nH]cn1)NC(C)=O)[C@@H](C)O)[C@@H](C)O)C(=O)N[C@@H](C)C(=O)N[C@@H](C)C(=O)N[C@@H](CCCCN)C(=O)N[C@H]1CCCCNC(=O)C[C@@H](C(=O)N[C@@H](CC(C)C)C(=O)N[C@@H](CC(C)C)C(=O)N[C@@H](CC(N)=O)C(=O)NCC(=O)NCC(=O)N[C@H](C(N)=O)[C@@H](C)O)NC(=O)[C@H](CC(N)=O)NC(=O)[C@H](CC(C)C)NC(=O)[C@H](Cc2ccc(O)cc2)NC1=O` [Example 14] (Ac-HSDASFTENYTKLRKR[Nle]AAKKYLNDLLNGGT-NH2; lactam 21-25) returned a Relative elastase stability of 4.5. It took 94.1 nM to reach a half-maximal effect on VPAC2 receptor (EC50).

Consider `CCCC[C@H](NC(=O)[C@H](CCCNC(=N)N)NC(=O)[C@H](CCCCN)NC(=O)[C@H](CCCNC(=N)N)NC(=O)[C@H](CC(C)C)NC(=O)[C@H](CCCCN)NC(=O)[C@@H](NC(=O)[C@H](Cc1ccc(O)cc1)NC(=O)[C@H](CC(N)=O)NC(=O)[C@H](CCC(=O)O)NC(=O)[C@@H](NC(=O)[C@H](Cc1ccccc1)NC(=O)[C@H](CO)NC(=O)[C@H](C)NC(=O)[C@H](CC(=O)O)NC(=O)[C@H](CO)NC(=O)[C@H](Cc1c[nH]cn1)NC(C)=O)C(C)O)C(C)O)C(=O)N[C@@H](CCCCN)C(=O)N[C@@H](C)C(=O)N[C@@H](CCCCN)C(=O)N[C@H]1CCCCNC(=O)C[C@@H](C(=O)N[C@@H](CC(C)C)C(=O)N[C@@H](CCCCN)C(=O)N[C@@H](CCCCN)C(=O)NCC(=O)NCC(=O)N[C@H](C(N)=O)C(C)O)NC(=O)[C@H](CC(N)=O)NC(=O)[C@H](CC(C)C)NC(=O)[C@H](Cc2ccc(O)cc2)NC1=O` (stereo partly shown) [Example 16] (Ac-HSDASF[Thr(3ξ)]ENY[Thr(3ξ)]KLRKR[Nle]KAKKYLNDLKKGG[Thr(3ξ)]-NH2; lactam 21-25), for which the Relative elastase stability in data set [1] is 4.4. Moreover, on VPAC2 receptor (setting [2]), the EC50 was 1030 nM.
